The values that follow come from patent publication US20080267905A1, “Methods and Compositions Using Selective Cytokine Inhibitory Drugs for Treatment and Management of Cancers and Other Diseases” (CELGENE CORPORATION, priority 2004, published 2008).

Molecules are shown by their SMILES.

The subject of one data set is TNF-α production. The experiment in a line: Inhibition of TNF-α production following LPS-stimulation of human PBMC and human whole blood (in vitro cytokine studies). The format is cell-based. The note with it: compared with thalidomide. The source says:
In a specific embodiment, the pharmacological properties of 3-(3,4-dimethoxy-phenyl)-3-(1-oxo-1,3-dihydro-isoindol-2-yl)-propionamide are characterized in in vitro studies. Studies examine the effects of the compound on the production of various cytokines. Inhibition of TNF-α production following LPS-stimulation of human PBMC and human whole blood by the compound is investigated in vitro. […] The pharmacological effects of 3-(3,4-dimethoxy-phenyl)-3-(1-oxo-1,3-dihydro-isoindol-2-yl)-propionamide may derive from its action as an inhibitor of the generation of inflammatory cytokines.

Data set [1] can be described thus: Cardiovascular and respiratory function in anesthetized dogs. The format is in vivo. The conditions noted are these: anesthetized Beagle dogs. The protocol:
The effects of 3-(3,4-dimethoxy-phenyl)-3-(1-oxo-1,3-dihydro-isoindol-2-yl)-propionamide on cardiovascular and respiratory function are investigated in anesthetized dogs. Two groups of Beagle dogs (2/sex/group) are used. One group receives three doses of vehicle only and the other receives three ascending doses of the compound (200, 400, and 800 mg/kg). In all cases, doses of the compound or vehicle are successively administered via infusion through the jugular vein separated by intervals of at least 30 minutes.

On to `COc1ccc(C(CC(N)=O)N2Cc3ccccc3C2=O)cc1OC` (stereo not drawn) [3-(3,4-dimethoxy-phenyl)-3-(1-oxo-1,3-dihydro-isoindol-2-yl)-propionamide], for which the “pharmacological activity profile, potency relative to thalidomide” value in the data set on TNF-α production is listed as “five to fifty times more potent than thalidomide”. The “cardiovascular and respiratory changes” value in data set [1] (all doses (200, 400, and 800 mg/kg), infusion through the jugular vein, compared to vehicle control group) is “minimal”. In data set [1] (common to both the control and treated groups), the “deviations in femoral blood flow, respiratory parameters, and Qtc interval” value was “not considered treatment-related”. For the same compound, the arterial blood pressure result in data set [1] (following administration of the low dose, only statistically significant difference vs vehicle) was “small increase”. Moreover, the “arterial blood pressure effect at higher doses” value in data set [1] (higher doses) is given as “not seen at higher doses”. Further, in data set [1] (low dose), the “duration of the arterial blood pressure effect” value is reported as “approximately 15 minutes”.
